Reference: patent publication US9545388B2, “Benzenetricarboxylic acid and methods of use” (GEORGETOWN UNIVERSITY, priority 2012, dated 2017)

Assays:
[1] = tested on: LC3; assay: immuno-fluorescence and cellular sub-fractionation for LC3 recruitment to mitochondria; format: cell-based
Description: ATP (Panel B) and Oxygen consumption levels (Panel C) in cells cultured in 5 mM glucose and mock treated (DMSO, Control) or treated with BTA, or in cells expressing CIC or CIC-DN, 16 hours after treatments. […] The percentages of cells distributed in the G1-, S-, or G2-phases of the cells cycle are shown. Apoptotic cells are identified as the Sub-G1 (SG) population. […] Cells were stained with anti-Flag (green, panels 1 and 4) and anti-LC3 (red, panels 2 and 5) antibodies, and counterstained with DAPI. Merged images are shown in panels 3 and 6. […]
Cells were grown in Dulbecco's modified Eagle's medium (DMEM, 5 mM glucose, with glutamine and pyruvate from Invitrogen; Carlsbad, Calif.) and supplemented with 10% fetal calf serum (FCS). […] The anti-CIC antibody was obtained from Santa Cruz Biotech (Santa Cruz, Calif.), employed at 1:1000 dilution in immuno-blot and at 1:100 in immuno-fluorescence; the anti-mHsp70 and anti-mitofilin antibody were from Novus Biological (Littleton, Colo.) employed at 1:500 in immuno-fluorescence and 1:1000 in immuno-blot; for the LC3 immuno-blot, a mixture of two antibodies was used each at 1:1000 dilution (Novus Biological). […]

[2] = tested on: breast cancer MDA-MB-231 cells; assay: tumor xenograft, breast cancer MDA-MB-231 cells in nude mice; format: in vivo, female athymic balbc/nude mice; settings: MDA-MB-231 xenograft, BTA 26 mg/kg intra-peritoneal three times a week, single agent
Description: (§2) To produce tumor xenografts, 5×10^6 cells were resuspended in PBS and injected subcutaneously in the flanks of female nude mice. […] Mice were pre-treated twice prior to the inoculation of tumor cell lines. Once detectable tumors started to form, their size was measured with a caliper in three dimensions. Serial measurements were made at two-three day intervals after the identification of the initial cellular mass to determine growth curves in vivo. Tumor volume was calculated using the formula for a prolate spheroid: volume=(4/3)×a^2b, where a is the width and b is the length. All animals were sacrificed when the tumors exceeded 1.5 cm. At the completion of experiments, tumors were excised, weighed and statistical significance of differences in tumor volume were made using two factor repeated measures analysis of variance followed by Fisher's last significant difference test for multiple comparisons.

[3] = tested on: MDA-MB-231 cells; assay: dose dependent growth inhibition of BTA in MDA-MB-231 cells; format: cell-based, human; settings: MBA-MD-231 cells, BTA dose response (FIG. 2B)
Description: Cells were grown in Dulbecco's modified Eagle's medium (DMEM, 5 mM glucose, with glutamine and pyruvate from Invitrogen; Carlsbad, Calif.) and supplemented with 10% fetal calf serum (FCS). Early passage cell lines or frozen pellets were used for screening of CIC expression levels (FIG. 1A). All the reagents for the study of complex I activity were purchased from Sigma-Aldrich (St. Louis, Mo.). The CIC specific shRNA vectors were purchased from Origene Technologies (Rockville, Md.). The vectors expressing human CIC untagged or Flag-Myc epitope tagged were also from Origene. The anti-CIC antibody was obtained from Santa Cruz Biotech (Santa Cruz, Calif.), employed at 1:1000 dilution in immuno-blot and at 1:100 in immuno-fluorescence; the anti-mHsp70 and anti-mitofilin antibody were from Novus Biological (Littleton, Colo.) employed at 1:500 in immuno-fluorescence and 1:1000 in immuno-blot; for the LC3 immuno-blot, a mixture of two antibodies was used each at 1:1000 dilution (Novus Biological). The LAMP-1 antibody was from Abcam (Cambridge, UK). The sequences of primers used were: the human cytochome c oxidase: forward: 5′-[…]-3′ (SEQ. ID NO: 1); Reverse:5′ […]-3′ (SEQ. ID NO: 2). The zebrafish NADH-dehydrogenase: forward: 5′-[…]-3′ (SEQ. ID NO: 3); reverse:5′ […]-3′ (SEQ. ID NO: 4). The zebrafish p53: forward: 5′-ACATGA […]-3′ (SEQ. ID NO: 5); Reverse: 5′ […] 3′ (SEQ. ID NO: 6).

[4] = target: T1, CIC (Homo sapiens, UniProt P53007); settings: in vivo; cited from earlier work
T1 construct: citrate levels in cells expressing endogenous CIC (nM/well) were assessed in 293T cell lines harboring the pcDNA/TO vector; endogenous in cells; host or cells: 293T cells harbouring the empty pcDNA/TO vector
T1 sequence (P53007 14-311): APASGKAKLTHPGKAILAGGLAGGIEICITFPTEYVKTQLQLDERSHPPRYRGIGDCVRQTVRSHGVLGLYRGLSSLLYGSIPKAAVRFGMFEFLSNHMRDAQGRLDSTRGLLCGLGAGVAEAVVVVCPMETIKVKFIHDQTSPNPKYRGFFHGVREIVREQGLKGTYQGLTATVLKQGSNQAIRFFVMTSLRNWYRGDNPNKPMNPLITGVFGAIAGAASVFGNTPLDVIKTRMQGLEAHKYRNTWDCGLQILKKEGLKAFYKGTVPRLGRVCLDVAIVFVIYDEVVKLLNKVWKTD

[5] = tested on: mitochondrial mass; assay: mitochondrial content by mitofilin and Nonyl-Acridine Orange (NOA); format: cell-based
Description: (§1) The concentration of citrate, lactate, isocitrate, and malate were assessed using specific kits from BioVision (Milpitas, Calif.). Cellular ATP levels were determined via the ATP kit (Promega; Fitchburg, Wis.), while oxygen consumption rates were measured using the BD oxygen biosensor systems (OBS) from BD Bioscience (Franklin Lakes, N.J.). Triplicate samples of 50,000 cells were seeded onto 96-well OBS plates. The number of cells was determined at each time point by sampling cells seeded into side-by-side plates. Fluorescence was measured from the bottom of the well every 24 h and measurements were normalized by subtracting the reading from the same well prior to the addition of the cells (blank). For measurement of reactive oxygen species (ROS), H2DCFDA was used (Invitrogen). Mitochondrial mass was assessed by using mitotracker green (Invitrogen), as per manufacturer instructions, or nonyl acridine orange at a final concentration of 300 nM, followed by analysis by flow cytometry. Mitochondrial membrane potential (MMP) was studied with the JC1 assay kit from Cayman Chemical (Ann Arbor, Mich.).

[6] = tested on: H1299 cells; assay: cell cycle analysis of H1299 cells under glucose restriction; format: cell-based, human; settings: glucose restriction (2 mM Glucose), 1 mM BTA
Description: ATP (Panel B) and Oxygen consumption levels (Panel C) in cells cultured in 5 mM glucose and mock treated (DMSO, Control) or treated with BTA, or in cells expressing CIC or CIC-DN, 16 hours after treatments. […] The percentages of cells distributed in the G1-, S-, or G2-phases of the cells cycle are shown. Apoptotic cells are identified as the Sub-G1 (SG) population. […] Cells were stained with anti-Flag (green, panels 1 and 4) and anti-LC3 (red, panels 2 and 5) antibodies, and counterstained with DAPI. Merged images are shown in panels 3 and 6. The results of these immunofluorescence experiments were confirmed with cellular sub-fractionation experiments shown in Panel F. Cytoplasmic (c) and mitochondrial (m) fractions derived from naïve 293T cells (lanes 1,2) or 293T cells expressing CIC (lanes 3,4) or CIC-DN (lanes 5,6) or treated with BTA (lanes 7,8), were probed with anti-CIC, anti-LC3, or anti-mitofilin antibodies, as indicated. The two arrows in the LC3 blot indicate cytosolic (-I) or activated (-II) LC3 forms. […] All images shown were derived from the same autoradiogram at identical times of exposures, but lanes in between samples of interest were eliminated. […] The anti-mitofilin, anti-p62 (employed as a general autophagic marker), anti-CIC, or anti LC3 specific immuno-blots are shown.

[7] = tested on: glucose-derived fatty acid (FA) synthesis; assay: metabolism of D-[1,6-13C2] glucose into fatty acids via NMR mass spectrometry; format: cell-based
From the text: The molecular mechanisms by which CIC affects proliferation were examined. The function of CIC has been primarily linked to glucose-derived fatty acid (FA) synthesis, because of its role in citrate export. Therefore, the metabolism of D-[1,6-^13C2] glucose via NMR mass spectrometry was studied. […] Thus, depletion of lipids unlikely represents the only mechanism by which CIC inhibition affects tumor growth.

[8] = tested on: H1299 cells; assay: cell viability by trypan blue exclusion in H1299 cells; format: cell-based, human; settings: 1 mM BTA, trypan blue exclusion (FIG. 2D)
Description: Negative values are due to subtraction of background rates. […] Cell viability was assessed with trypan blue exclusion.
Cells were grown in Dulbecco's modified Eagle's medium (DMEM, 5 mM glucose, with glutamine and pyruvate from Invitrogen; Carlsbad, Calif.) and supplemented with 10% fetal calf serum (FCS). Early passage cell lines or frozen pellets were used for screening of CIC expression levels (FIG. 1A). All the reagents for the study of complex I activity were purchased from Sigma-Aldrich (St. Louis, Mo.). The CIC specific shRNA vectors were purchased from Origene Technologies (Rockville, Md.). The vectors expressing human CIC untagged or Flag-Myc epitope tagged were also from Origene. The anti-CIC antibody was obtained from Santa Cruz Biotech (Santa Cruz, Calif.), employed at 1:1000 dilution in immuno-blot and at 1:100 in immuno-fluorescence; the anti-mHsp70 and anti-mitofilin antibody were from Novus Biological (Littleton, Colo.) employed at 1:500 in immuno-fluorescence and 1:1000 in immuno-blot; for the LC3 immuno-blot, a mixture of two antibodies was used each at 1:1000 dilution (Novus Biological). The LAMP-1 antibody was from Abcam (Cambridge, UK). The sequences of primers used were: the human cytochome c oxidase: forward: 5′-[…]-3′ (SEQ. ID NO: 1); Reverse:5′ […]-3′ (SEQ. ID NO: 2). […]

[9] = Description: To produce tumor xenografts, 5×10^6 cells were resuspended in PBS and injected subcutaneously in the flanks of female nude mice. For drug treatments, mice were randomized to receive either PBS or a PBS solution of BTA at a concentration 26 mg/kg which was administered via intra-peritoneal route three times a week. Mice were pre-treated twice prior to the inoculation of tumor cell lines. Once detectable tumors started to form, their size was measured with a caliper in three dimensions. Serial measurements were made at two-three day intervals after the identification of the initial cellular mass to determine growth curves in vivo. Tumor volume was calculated using the formula for a prolate spheroid: volume=(4/3)×a^2b, where a is the width and b is the length. All animals were sacrificed when the tumors exceeded 1.5 cm. At the completion of experiments, tumors were excised, weighed and statistical significance of differences in tumor volume were made using two factor repeated measures analysis of variance followed by Fisher's last significant difference test for multiple comparisons. The trial administration of BTA to explore its toxic effects, was conducted on 8 non immuno-compromised mice, randomized in two groups, and injected for five consecutive months. Animals were monitored once a week for the presence of signs of disease, particularly neurological disturbances or weight loss, and they were weighted periodically.
[10] = tested on: bladder cancer cells derived from T24 cells; assay: tumor xenograft, bladder cancer cells derived from T24 in nude mice; format: in vivo, female athymic balbc/nude mice; settings: BTA 26 mg/kg intra-peritoneal three times a week
Description: as §2

[11] = tested on: lung cancer H1299 cell lines; assay: tumor xenograft, lung cancer H1299 cells in nude mice; format: in vivo, female athymic balbc/nude mice; settings: BTA 26 mg/kg intra-peritoneal three times a week
Description: as §2

[12] = tested on: lactate; assay: lactate levels in treated cells; format: cell-based
Description: as §1

[13] = cell death by trypan blue exclusion in BTA-treated cells with or without rescue agents; format: cell-based

O=C(O)c1cccc(C(=O)O)c1C(=O)O [BTA, 1,2,3-benzenetricarboxylic acid]
LC3-II in the mitochondrial fraction ([1]; 293T cells treated with BTA, sub-fractionation immuno-blot (FIG. 5F lane 8)): enrichment of LC3-II in the mitochondria | recruitment of active-lipidated LC3 and lysosomes to the mitochondria ([1]; cells treated with BTA): recruitment of the autophagic machinery | anti-cancer activity (tumor volume) [2]: exhibited anti-cancer activity | proliferation rates [3]: decreased proliferation rates in a dose-dependent manner | CIC-dependent transport of citrate [4]: suppresses CIC-dependent transport of citrate | mitochondrial quantity (mitofilin) ([5]; time course following BTA treatment (FIG. 5G)): reduction of mitochondrial quantity as a function of time | apoptosis (Sub-G1 population) [6]: induction of apoptosis | total FA levels ([7]; 16 hours after BTA treatment): modestly reduced | ability of cells to convert glucose into FA ([7]; D-[1,6-13C2] glucose): severely reduced the ability of cells to convert glucose into FA | total FA levels ([7]; later time points after BTA treatment): increased | cell growth / viability [8]: growth inhibition | evidence of illness or toxicity ([9]; mouse, in vivo): no evidence of illness or toxicity | evidence of toxicity ([9]; mouse, in vivo): without showing any evidence of toxicity | body weight ([9]; non immuno-compromised mice, BTA twice a week for five consecutive months): small but statistically significant reduction of the body weight | anti-cancer activity (tumor volume) [10]: exhibited anti-cancer activity | anti-cancer activity (tumor volume) [11]: exhibited anti-cancer activity | levels of glucose-derived lactate [12]: enhanced the levels of glucose-derived lactate | viability of treated cells ([13]; cells treated with BTA): loss of viability

Cn1cnc(N)c2ncnc1-2 [Compound 3MA, 3-Methyladenine, reference compound]
mitochondrial amount (NOA) in BTA-treated cells ([5]; 5 mM 3MA added to BTA-treated cells (FIG. 6A)): restored mitochondrial amount

CC(=O)N[C@@H](CS)C(=O)O [NAC, N-acetyl-cysteine]
prevention of loss of viability in cells treated with BTA ([13]; 5 mM methyl-pyruvate or 2 mM NAC added to BTA-treated cells (FIG. 5A)): partially prevented loss of viability

CCCCCCCCCCCCCCCC(=O)O [palmitic acid]
rescue of proliferation of BTA-treated cells ([13]; incubation of BTA-treated cells with palmitic acid): not sufficient to rescue proliferation
